Data on five molecules can be found in article PMC4890880 (ACS infectious diseases, 2016).

Molecules are shown by their SMILES. Like-named read-outs stand apart in the source and are kept apart here.

The test system of test [1] is Plasmodium berghei (Pb-Luc) exoerythrocytic-stage parasites. The settings on record: for normalized signal at concentration 10 / normalized signal at concentration 0.000508053 / normalized signal at concentration 0.00152416 / normalized signal at concentration 0.00457247 / normalized signal at concentration 0.0137174 / normalized signal at concentration 0.0411523 / normalized signal at concentration 0.123457 / normalized signal at concentration 0.37037 / normalized signal at concentration 1.11111 / normalized signal at concentration 3.33333: fraction of control; for IC50: read-out: PbLuc_IC50.

In a further test the test system is HepG2-A16-CD81EGFP cells. The settings on record: for IC50: read-out: Tox_IC50, HepG2 cytotoxicity.
Where [2] appears, read: first series of dose-response columns.
Setting [3] is: sheet 2nd round, Broad compounds, dose response.
Where [4] appears, read: second series of dose-response columns.
Where [5] appears, read: sheet 2nd round, maximal inhibition in dose response.
[6] abbreviates: second series of columns (replicate).

Regarding `C[C@@H]1CN([C@@H](C)CO)C(=O)c2cccc(NC(=O)c3ccc(-c4nccs4)cc3)c2O[C@H]1CN(C)C(=O)Nc1ccc(C(F)(F)F)cc1` [BRD-K97485207-001-01-1], the “normalized signal at concentration 10” value in test [1] (setting [2]) is 0.53. Besides, in test [1] (first series), the “normalized signal at concentration 0.000508053” value came to 0.80, the “normalized signal at concentration 0.00152416” value is 0.94, the “normalized signal at concentration 0.00457247” value is on record as 0.89 and the “normalized signal at concentration 0.0137174” value came out at 0.64. For the same molecule, in test [1] (first series), the “normalized signal at concentration 0.0411523” value was found to be 0.84, the “normalized signal at concentration 0.123457” value is 1.04, the “normalized signal at concentration 0.37037” value was found to be 0.85 and the “normalized signal at concentration 1.11111” value came to 0.73. For the same molecule, the “normalized signal at concentration 3.33333” value in test [1] (first series) stood at 0.73. The IC50 in test [1] (setting [3]) is more than 10 µM. For the same molecule, the “normalized signal at concentration 10” value in test [1] (setting [4]) is recorded as 0.66. In test [1] (second series), the “normalized signal at concentration 0.000508053” value is 0.85, the “normalized signal at concentration 0.00152416” value stood at 0.90, the “normalized signal at concentration 0.00457247” value was 0.80 and the “normalized signal at concentration 0.0137174” value came to 0.89. Besides, in test [1] (second series), the “normalized signal at concentration 0.0411523” value was 0.77, the “normalized signal at concentration 0.123457” value turned out to be 0.77, the “normalized signal at concentration 0.37037” value is reported as 0.95 and the “normalized signal at concentration 1.11111” value was 0.95. Moreover, the “normalized signal at concentration 3.33333” value in test [1] (second series) was 0.97. Moreover, the “PbLuc_max_inhibition (%)” value in test [1] (setting [5]) is reported as 47%. For the same molecule, the IC50 in the test on HepG2-A16-CD81EGFP cells (sheet 2nd round) was more than 10 µM. Also, the “Tox_max_inhibition (%)” value with HepG2-A16-CD81EGFP cells (setting [5]) is on record as 6.47%.

Turning to `O=C(O)C[C@H]1CC[C@@H]2[C@H](COC[C@@H](O)CN2S(=O)(=O)c2ccc(Oc3ccccc3)cc2)O1` [BRD-K61788733-001-01-3], in test [1] (first series of columns), the “normalized signal at concentration 0.000508053” value was 0.8641, the “normalized signal at concentration 0.00152416” value amounted to 0.8788, the “normalized signal at concentration 0.00457247” value amounted to 0.8741 and the “normalized signal at concentration 0.0137174” value is on record as 0.9455. Besides, in test [1] (first series of columns), the “normalized signal at concentration 0.0411523” value was found to be 0.9154, the “normalized signal at concentration 0.123457” value is 0.9561, the “normalized signal at concentration 0.37037” value was determined as 0.927 and the “normalized signal at concentration 1.11111” value is listed as 1.099. In test [1] (first series of columns), the “normalized signal at concentration 3.33333” value was 1.256 and the “normalized signal at concentration 10” value was 1.046. Moreover, the IC50 in test [1] (sheet 2nd round, Pb-Luc exoerythrocytic stage, 10-point dose response, top concentration 10) was more than 10 µM. Besides, in test [1] (setting [6]), the “normalized signal at concentration 0.000508053” value was found to be 1.03, the “normalized signal at concentration 0.00152416” value stood at 0.992, the “normalized signal at concentration 0.00457247” value is reported as 0.8804 and the “normalized signal at concentration 0.0137174” value is reported as 0.7616. Moreover, in test [1] (setting [6]), the “normalized signal at concentration 0.0411523” value is 1.066, the “normalized signal at concentration 0.123457” value was determined as 0.77, the “normalized signal at concentration 0.37037” value came to 0.8648 and the “normalized signal at concentration 1.11111” value was found to be 0.993. In test [1] (setting [6]), the “normalized signal at concentration 3.33333” value is listed as 1.071 and the “normalized signal at concentration 10” value worked out at 1.076. Further, the “PbLuc_max_inhibition (%)” value in test [1] (setting [5]) is 24%. The IC50 with HepG2-A16-CD81EGFP cells (sheet 2nd round) was more than 10 µM. The “Tox_max_inhibition (%)” value in the test on HepG2-A16-CD81EGFP cells (setting [5]) is reported as 4.62%.

As to `O=C(Nc1ccccc1F)N1CCCCN2[C@@H](CO)[C@@H](c3ccc(/C=C/c4ccccc4)cc3)[C@@H]2C1` [BRD-K75724375-001-01-5], in test [1] (concentration 0.000508053, first series), the “normalised signal at concentration 0.000508053 (first series)” value is reported as 0.9105. Moreover, the “normalised signal at concentration 0.000508053 (second series)” value in test [1] (concentration 0.000508053, second series) amounted to 0.9278. Besides, the “normalised signal at concentration 0.00152416 (first series)” value in test [1] (concentration 0.00152416, first series) was 1.073. In test [1] (concentration 0.00152416, second series), the “normalised signal at concentration 0.00152416 (second series)” value is listed as 0.9037. Further, the “normalised signal at concentration 0.00457247 (first series)” value in test [1] (concentration 0.00457247, first series) is reported as 0.819. For the same molecule, the “normalised signal at concentration 0.00457247 (second series)” value in test [1] (concentration 0.00457247, second series) is 0.9578. For the same molecule, the “normalised signal at concentration 0.0137174 (first series)” value in test [1] (concentration 0.0137174, first series) was 0.8286. In addition, the “normalised signal at concentration 0.0137174 (second series)” value in test [1] (concentration 0.0137174, second series) was found to be 0.9852. Moreover, in test [1] (concentration 0.0411523, first series), the “normalised signal at concentration 0.0411523 (first series)” value is listed as 0.8408. Besides, in test [1] (concentration 0.0411523, second series), the “normalised signal at concentration 0.0411523 (second series)” value came to 0.7698. Moreover, the “normalised signal at concentration 0.123457 (first series)” value in test [1] (concentration 0.123457, first series) is recorded as 0.9337. In addition, the “normalised signal at concentration 0.123457 (second series)” value in test [1] (concentration 0.123457, second series) is 1.085. For the same molecule, the “normalised signal at concentration 0.37037 (first series)” value in test [1] (concentration 0.37037, first series) was 0.7789. Also, the “normalised signal at concentration 0.37037 (second series)” value in test [1] (concentration 0.37037, second series) was determined as 1.01. Also, the “normalised signal at concentration 1.11111 (first series)” value in test [1] (concentration 1.11111, first series) is listed as 1.025. Also, the “normalised signal at concentration 1.11111 (second series)” value in test [1] (concentration 1.11111, second series) turned out to be 0.8416. Besides, the “normalised signal at concentration 3.33333 (first series)” value in test [1] (concentration 3.33333, first series) came out at 0.8686. In addition, the “normalised signal at concentration 3.33333 (second series)” value in test [1] (concentration 3.33333, second series) turned out to be 0.672. In addition, the “normalised signal at concentration 10 (first series)” value in test [1] (concentration 10, first series of dose columns) was determined as 0.5018. Further, the “normalised signal at concentration 10 (second series)” value in test [1] (concentration 10, second series of dose columns) was found to be 0.4819. In addition, the IC50 in test [1] (sheet "2nd round", Broad compounds, dose response top concentration 10) was more than 10 µM. Also, the “PbLuc_max_inhibition (%)” value in test [1] (sheet "2nd round") is listed as 52%. In the test on HepG2-A16-CD81EGFP cells (sheet "2nd round"), the IC50 is more than 10 µM and the “Tox_max_inhibition (%)” value was found to be 3.77%.

For `C[C@@H]1CN([C@H](C)CO)C(=O)c2cc(N(C)C)ccc2O[C@@H](C)CCCCO[C@@H]1CN(C)S(=O)(=O)c1ccc(F)cc1` [BRD-K12341671-001-01-5], the “normalized signal at concentration 10” value in test [1] (setting [2]) is reported as 0.50. Moreover, in test [1] (first series), the “normalized signal at concentration 0.000508053” value is 0.77, the “normalized signal at concentration 0.00152416” value stood at 1.03, the “normalized signal at concentration 0.00457247” value is recorded as 1.06 and the “normalized signal at concentration 0.0137174” value is listed as 0.89. In test [1] (first series), the “normalized signal at concentration 0.0411523” value is 0.99, the “normalized signal at concentration 0.123457” value came to 1.04, the “normalized signal at concentration 0.37037” value is on record as 0.93 and the “normalized signal at concentration 1.11111” value is recorded as 0.88. In addition, the “normalized signal at concentration 3.33333” value in test [1] (first series) is reported as 0.70. Moreover, the IC50 in test [1] (setting [3]) is more than 10 µM. For the same molecule, the “normalized signal at concentration 10” value in test [1] (setting [4]) worked out at 0.50. Also, in test [1] (second series), the “normalized signal at concentration 0.000508053” value was 0.88, the “normalized signal at concentration 0.00152416” value amounted to 1.15, the “normalized signal at concentration 0.00457247” value amounted to 0.85 and the “normalized signal at concentration 0.0137174” value was 0.84. Further, in test [1] (second series), the “normalized signal at concentration 0.0411523” value amounted to 0.98, the “normalized signal at concentration 0.123457” value is 0.98, the “normalized signal at concentration 0.37037” value is 0.92 and the “normalized signal at concentration 1.11111” value is listed as 0.85. The “normalized signal at concentration 3.33333” value in test [1] (second series) stood at 0.80. Further, in test [1] (setting [5]), the “PbLuc_max_inhibition (%)” value stood at 50%. Further, in the test on HepG2-A16-CD81EGFP cells (sheet 2nd round), the IC50 was more than 10 µM. Further, the “Tox_max_inhibition (%)” value with HepG2-A16-CD81EGFP cells (setting [5]) is reported as 5%.

Regarding `C[C@@H]1CCCCO[C@@H](CN(C)S(=O)(=O)c2ccc(F)cc2)[C@@H](C)CN([C@H](C)CO)C(=O)c2cc(N(C)C)ccc2O1` [BRD-K46014293-001-01-6], the “normalized signal at concentration 10” value in test [1] (setting [2]) was 1.08. Besides, in test [1] (first series), the “normalized signal at concentration 0.000508053” value was found to be 0.75, the “normalized signal at concentration 0.00152416” value is 0.85, the “normalized signal at concentration 0.00457247” value was found to be 0.95 and the “normalized signal at concentration 0.0137174” value worked out at 0.77. Moreover, in test [1] (first series), the “normalized signal at concentration 0.0411523” value was determined as 0.97, the “normalized signal at concentration 0.123457” value was 1.05, the “normalized signal at concentration 0.37037” value is recorded as 1.10 and the “normalized signal at concentration 1.11111” value was found to be 1.01. Moreover, the “normalized signal at concentration 3.33333” value in test [1] (first series) was 0.87. In addition, in test [1] (setting [3]), the IC50 was more than 10 µM. Further, the “normalized signal at concentration 10” value in test [1] (setting [4]) is 0.93. For the same molecule, in test [1] (second series), the “normalized signal at concentration 0.000508053” value was 1.07, the “normalized signal at concentration 0.00152416” value is 0.98, the “normalized signal at concentration 0.00457247” value is 0.95 and the “normalized signal at concentration 0.0137174” value is recorded as 0.98. Further, in test [1] (second series), the “normalized signal at concentration 0.0411523” value was 0.94, the “normalized signal at concentration 0.123457” value is reported as 1.10, the “normalized signal at concentration 0.37037” value is recorded as 1.03 and the “normalized signal at concentration 1.11111” value worked out at 0.83. Moreover, the “normalized signal at concentration 3.33333” value in test [1] (second series) is recorded as 0.91. The “PbLuc_max_inhibition (%)” value in test [1] (setting [5]) came to 25%. Further, the IC50 in the test with HepG2-A16-CD81EGFP cells (sheet 2nd round) was more than 10 µM. In the test on HepG2-A16-CD81EGFP cells (setting [5]), the “Tox_max_inhibition (%)” value is reported as 15%.
